In a melting point compilation (Tetko et al.; mined from patent text by program, amines drawn as free bases though some values may be those of a salt):

First: Cc1ccc(S(=O)(=O)OCC2Cn3c(nc4ccccc43)-c3ccccc3O2)cc1 (stereo unspecified)
Second: COc1ccc(C2c3[nH]c4ccccc4c3CCN2C(=O)C=Cc2ccccc2)cc1 (stereo unspecified)
The melting point of the first is higher: 166 °C for the first, 127 °C for the second.

First: CCCCNc1c(NCc2ccccc2)cc(C(=O)O)cc1S(N)(=O)=O
Second: COc1ccc(O)c(C(=O)Nc2ccccc2C(=O)NCCCC(=O)O)c1
The melting point of the first is higher: 198 to 199 °C for the first, 191 to 193 °C for the second.

First: Cn1cc(-c2cccc(C(=O)O)c2)c(=O)c(-n2cccn2)c1
Second: CS(=O)(=O)c1ccc(-n2nc(C(=O)O)cc2-c2ccc(-c3ccco3)cc2)cc1F
The melting point of the first is higher: 280 °C for the first, 172 to 173 °C for the second.

Compared with `CCCCCCCCCCCCc1nnc(C(C(=O)Nc2c(OC)cc(OC)cc2OC)c2ccccc2)o1` (stereo unspecified), `CCCc1cc(C(=O)O)cc(CCC)c1OCCCCCCc1cccc(O)c1O` is lower in melting point: 120 to 121 °C for the first, 94 to 96 °C for the second.

Compared with `Nc1nc2c(s1)CCN(CC=Cc1ccccc1F)CC2`, `COC(=O)C=Cc1cc2c(nc1C)C(=Cc1ccccc1)CCC2` is higher in melting point: 96 to 102 °C for the first, 121 to 123 °C for the second.

Compared with `Nc1nccnc1Cc1ccccc1`, `Oc1cc2ccc(Cc3ccccc3)cc2cc1O` is higher in melting point: 93 to 96 °C for the first, 177 to 187 °C for the second.

First: CC(C)(C)C(NC(=O)c1ccc(I)cc1)NS(=O)(=O)Nc1cccnc1 (stereo unspecified)
Second: Cc1ncccc1CC(=NC#N)NC(NC(=O)Cc1ccc(Cl)cc1)C(C)(C)C (stereo unspecified)
The melting point of the first is higher: 177 to 178 °C for the first, 118 to 119 °C for the second.

First: COc1cc(OCC(=O)O)cc2c1C(Cl)=CC1(CCCCC1)O2
Second: CCc1cc(C(=O)O)ccc1N=C1SCC2(CCCC2)N1C1CCCC1
The melting point of the first is lower: 132 to 133 °C for the first, 208 to 209 °C for the second.

First: CCOC(=O)[C@H](Cc1ccc(-c2c(OC)cc(CO)cc2OC)cc1)NC(=O)OC(C)(C)C
Second: COc1ccc(C[C@@H](CO)NC(=O)c2ccnc(Br)c2)cc1OC
The melting point of the first is lower: 142 to 143 °C for the first, 151 to 153 °C for the second.

First: CCN(CC)C(=O)/C=C/c1ccc(Cn2c(-c3ccc(O)cc3)c(C)c3cc(O)ccc32)cc1
Second: Nc1ccccc1NC(=O)c1ccc(CNC(=O)c2[nH]c(-c3ccsc3)cc2-c2ccc(O)cc2)cc1
The melting point of the first is higher: 160 to 165 °C for the first, 135 to 137 °C for the second.

First: c1ccc(Oc2ccc(NC3=NN(c4ccccc4)CC3)cc2)cc1
Second: COC(=O)c1cccc(CN2C(=O)N(c3ccccc3Br)Cc3cnc(Nc4ccccc4)nc32)c1
The melting point of the first is higher: 114 to 116 °C for the first, 79 to 82 °C for the second.

First: CC(=O)NCC1CC(c2ccc(-n3ccnc3)c(F)c2)=NO1 (stereo unspecified)
Second: Fc1ccc(C2=NOC(CN=C=S)C2)cc1 (stereo unspecified)
The melting point of the first is higher: 155 to 156 °C for the first, 59 to 61 °C for the second.

Compared with `CCC(=O)Nc1cccc(NC(=O)C(C)C)c1`, `Cc1cccc2cc3c(=O)n(C)cc(C(=O)N[C@@H](C)C(=O)N(C)C)c3nc12` is higher in melting point: 174 to 175 °C for the first, 268 to 274 °C for the second.

First: O=c1c2cc(F)c(N3CCCC3)nc2n(Cc2ccccc2)c(=O)n1OCc1ccccc1
Second: O=C1NC(Cc2ccc([N+](=O)[O-])c(OCc3ccccc3)c2)C(=O)Nc2ccccc21 (stereo unspecified)
The melting point of the first is lower: 171 to 172 °C for the first, 243 to 245 °C for the second.

Compared with `Cc1ccc(OCCC(C(=O)O)c2ccccc2)c2ccccc12` (stereo unspecified), `CCOc1nn(Cc2ccc(OCc3ccccc3)cc2)cc1CCC(=O)O` is lower in melting point: 130 to 132 °C for the first, 115 to 116 °C for the second.

`CCCCCCOc1ccc2cc(OCCCCCC)ccc2c1` and `CC(C)NCCCCCCOc1ccc(O)cc1` cannot be ordered by melting point: 78 to 79 °C for the first, 78 to 86 °C for the second.

Compared with `CCCCc1oc2ccc(NS(C)(=O)=O)cc2c1C(O)c1ccc(OCCCN(CCCC)CCCC)cc1` (stereo unspecified), `CCCCOC(=O)NS(=O)(=O)c1ccccc1-c1ccc(Cn2c(CCC)nc(SC)c2C(=O)O)cc1` is higher in melting point: 94 °C for the first, 202 to 204 °C for the second.

First: CC(C)(C)OC(=O)Nc1cc(-c2nnc(CCc3cccc(F)c3)o2)ccn1
Second: COc1ccnc(C(=O)NCCNC(=O)OC(C)(C)C)c1
The melting point of the first is higher: 256 to 257 °C for the first, 106 to 107 °C for the second.

First: NCC1Cc2cc(C(F)(F)F)cc(-c3ccsc3)c2O1 (stereo unspecified)
Second: COc1cc(C(F)(F)F)cc(OC)c1C(=O)CCl
The melting point of the first is higher: over 250 °C for the first, 120 to 122 °C for the second.

First: CCCCc1cc(O)n2nccc2n1
Second: Clc1ccc2nc(-c3ccco3)c(I)n2n1
The melting point of the first is lower: 177 to 178 °C for the first, 260 to 263 °C for the second.

First: O=C(CCCCCl)c1cccc2c1OCCO2
Second: CCc1c(CCC(=O)OC)ccc2c1OCO2
The melting point of the first is lower: 32 to 38 °C for the first, 44 to 46 °C for the second.

First: CCCCCCCCOC(=O)c1ccc(C(=O)O)cc1
Second: CCCCC1(CCCC)CCc2c(OCc3ccc4ccccc4n3)ccc(Cl)c2C1O (stereo unspecified)
The melting point of the first is lower: 113 °C for the first, 142 to 144 °C for the second.

Compared with `C[C@H]1C(=O)C[C@@H]2C[C@H]1OO[C@]2(C)/C=C/C(=O)c1ccc(Cl)cc1`, `CCOC(=O)c1cc(=O)c2c(OCC(O)COc3ccc(Cl)cc3)cccc2o1` (stereo unspecified) is lower in melting point: 127 °C for the first, 98 to 100 °C for the second.

First: CC(C)(C#N)c1cc(C#N)cc(Cn2ccnc2)c1
Second: COc1cc(-c2cc(F)cc(C#N)c2)cc2c1NC(=O)OC2(C)C
The melting point of the first is lower: 89 to 92 °C for the first, 252 to 253 °C for the second.

First: CC(=O)N1CC(C)(C)c2cc3[nH]nnc3cc21
Second: O=c1[nH]nnc2sccc12
The melting point of the first is higher: 281 to 283 °C for the first, 175 to 176 °C for the second.

First: COc1ccc2[nH]c(SCc3nccc(N4CCOCC4)n3)nc2c1
Second: COc1ccccc1N1CCN(CCn2c(=O)[nH]c3scc(C)c3c2=O)CC1
The melting point of the first is lower: 188 to 192 °C for the first, 209 to 213 °C for the second.

First: CC1CN(c2ccc(N)cc2)C(C)CN1CC(O)(Cn1cncn1)c1ccc(Cl)cc1Cl (stereo unspecified)
Second: COc1ccccc1C(=O)N1CCN(C(=O)CNC2CCN(Cc3ccccc3)CC2)C(c2ccc(Cl)c(Cl)c2)C1 (racemic)
The melting point of the first is higher: 74 to 75 °C for the first, 71 to 73 °C for the second.

Compared with `Cn1c(CC(=O)O)cc2ccccc21`, `Nc1nc(=O)n(C(=O)Oc2ccccc2)cc1F` is higher in melting point: 146 to 148 °C for the first, 175 to 180 °C for the second.

First: Cc1ccc(C(=O)Nc2ccc(NCC(C)O)c(C(F)(F)F)c2)cc1Nc1nccc(-c2cccnc2)n1 (stereo unspecified)
Second: COc1ccc(-c2ccc(C(=O)Nc3cccc(CC(=O)O)c3)o2)cc1
The melting point of the first is higher: 184 to 186 °C for the first, 179 to 180 °C for the second.

First: NNc1c(F)c(F)c(C(F)(F)F)c(F)c1Cl
Second: NS(=O)(=O)c1ccc(-n2nc(C(F)(F)F)cc2-c2ccc(F)cc2)cc1F
The melting point of the first is lower: 91 to 92 °C for the first, 127 to 130 °C for the second.

First: COc1cc(C(C)(C)O)cc(Br)c1O
Second: COc1ccc(NC(=N)c2cccs2)cc1CO
The melting point of the first is lower: 107 to 112 °C for the first, 191 to 192 °C for the second.

Compared with `O=C1[C@H]2CCC[C@H]2N(C(=O)CBr)c2ccc(Cl)cc2N1Cc1ccccc1` (relative stereo), `N#CCc1cccc(-c2onc3ccccc23)c1` is lower in melting point: 163 to 164 °C for the first, 122 to 124 °C for the second.

Compared with `CNC(=N)N(C)Cc1ccc(C)cc1`, `CCOC(=O)c1cccn1Cc1ccc(Cl)cc1[N+](=O)[O-]` is lower in melting point: 118 to 125 °C for the first, 104 to 106 °C for the second.

Compared with `Cc1ccc2c(n1)NC(C)C(=O)N2` (racemic), `CCC(=O)Nc1cccc2c1C(=O)N(C1CCC(=O)NC1=O)C2=O` (stereo unspecified) is higher in melting point: 203 to 205 °C for the first, 221 to 223 °C for the second.

Compared with `COc1cc(OC)c([N+](=O)[O-])c(OC)c1NC(=O)OCCCl`, `CCOC(=O)c1c(N)cc([N+](=O)[O-])cc1CC` is lower in melting point: 133 °C for the first, 68 to 70 °C for the second.

First: CCOC(=O)C1CN(C2CC2)c2nc3cc(F)c(F)cc3cc2C1=O (stereo unspecified)
Second: CNC1(C)CN(c2nc3c(cc2F)c(=O)c(C(=O)O)cn3C(C)(C)C)C1
The melting point of the first is lower: 172 °C for the first, over 300 °C for the second.

First: N#Cc1c(N2CCN(C(=O)c3cccs3)CC2)c2sccc2[nH]c1=O
Second: COC(=O)c1ccc(-c2ccc(-c3cn([C@H]4CN5CCC4CC5)nn3)s2)cc1F
The melting point of the first is higher: 293 °C for the first, 250 °C for the second.

Compared with `CSc1cn(C(c2ccccc2)(c2ccccc2)c2ccccc2)c(F)n1`, `CC(C)=CCN1CCOC(CN2c3ccccc3C=Cc3ccccc32)C1` (stereo unspecified) is lower in melting point: 142 to 143 °C for the first, 99 to 100 °C for the second.

Compared with `COC(=O)c1cc(N)nn1C`, `COC(=O)c1cn2c(=O)c(C)c(C)nc2s1` is higher in melting point: 114 to 118 °C for the first, 158 to 159 °C for the second.

First: CCCc1nc(SC(F)F)c(C(=O)O)n1Cc1ccc(-c2ccccc2S(=O)(=O)NC(=O)NCc2ccc(F)cc2)cc1
Second: CCCc1nc(CO)n2[nH]c(=O)nc2c1Cc1ccc(-c2ccccc2-c2nnn[nH]2)cc1
The melting point of the first is lower: 122 °C for the first, 182 to 183 °C for the second.

First: Cc1cc(O)c(N2CC(=O)NS2(=O)=O)c(F)c1
Second: Cc1cc(NC(=O)C2=C(O)c3ccccc3S(=O)(=O)CC2)no1
The melting point of the first is lower: 164 to 166 °C for the first, 226 to 228 °C for the second.

Compared with `Cc1cc(-c2ccc(OC(F)(F)F)cc2)ccc1C1COC(c2c(F)cccc2F)=N1` (stereo unspecified), `COc1ccc(-c2ccc(C(=O)Nc3cc4ncc(CN5CCCCCC5)cc4cc3C)c(F)c2)cc1` is higher in melting point: 78.5 to 79 °C for the first, 168 °C for the second.

Compared with `CC(=O)C(=Cc1ccc(C#N)cc1)C(=O)C1CC1`, `CC(=O)OC1CSC(Sc2ccc(C#N)cc2C#N)C(OC(C)=O)C1OC(C)=O` (stereo unspecified) is higher in melting point: 83 to 85 °C for the first, 228 °C for the second.

First: CCOC(=S)c1c(C)nc2sccn12
Second: CCCc1nc2c(N)nc3cc(Oc4ccccc4N)ccc3c2n1CC(C)C
The melting point of the first is lower: 133 to 135 °C for the first, 197 to 199 °C for the second.

First: N#Cc1c(Cl)nc2ccc(S(=O)(=O)Cl)cc2c1Cl
Second: COc1cc(-c2c(Cl)c(CN3C(=O)CCC3=O)nc3sc4c(c23)CCN(C(C)=O)C4)ccc1O
The melting point of the first is lower: 168 to 171 °C for the first, 273 to 275 °C for the second.

Compared with `O=[N+]([O-])c1cc(O)c(O)c([N+](=O)[O-])c1`, `Fc1cc2c(cc1F)Sc1cc(F)c(F)cc1S2` is lower in melting point: 168 to 170 °C for the first, 108 °C for the second.

Compared with `O=C1c2ccccc2C(=O)N1CCCCc1nc[nH]n1`, `O=C(O)CCCNC(=O)c1ccccc1SSc1ccccc1C(=O)NCCCC(=O)O` is lower in melting point: 169 to 171 °C for the first, 165 to 166 °C for the second.

First: COc1ccc(OCC(O)CN2CCN(C(N)=O)CC2)cc1 (stereo unspecified)
Second: Cc1ccc2c(c1)C=Cc1cc(C)ccc1C2c1cn(-c2ccnc(N3C[C@H](O)C[C@H]3C(=O)O)n2)c(=O)[nH]c1=O
The melting point of the first is lower: 192 to 195 °C for the first, 208 to 210 °C for the second.

First: COc1cc(C=C2COCC(=Cc3cc(OC)c(OC)c(OC)c3)C2=O)cc(OC)c1OC
Second: CC(=O)Nc1cccc2c1C1(COc3cc4c(cc31)OCCO4)C(=O)N2C (stereo unspecified)
The melting point of the first is higher: 187 to 189 °C for the first, 182 to 184 °C for the second.

`CC(C)CP(=O)(CCC(=O)O)CCC(=O)O` and `CCC1CC2C3CCC4=CC(=O)CCC4=C3C=CC2(CC)C1O` (stereo unspecified) cannot be ordered by melting point: 186 to 187 °C for the first, 184 to 187 °C for the second.

Work on `CC(C)(C)[S@@](=O)NC1(c2ccc3c(C(F)(F)F)c(O[C@H]4CC[C@H](C(C)(C)C)CC4)ccc3c2)COC1` yielded a melting point of 86.8 to 90 °C.
